For this test, the target named is T1, COX-2 (Homo sapiens, UniProt P35354).
T1 construct: purchased Abcam, UK
T1 sequence (P35354 18-604): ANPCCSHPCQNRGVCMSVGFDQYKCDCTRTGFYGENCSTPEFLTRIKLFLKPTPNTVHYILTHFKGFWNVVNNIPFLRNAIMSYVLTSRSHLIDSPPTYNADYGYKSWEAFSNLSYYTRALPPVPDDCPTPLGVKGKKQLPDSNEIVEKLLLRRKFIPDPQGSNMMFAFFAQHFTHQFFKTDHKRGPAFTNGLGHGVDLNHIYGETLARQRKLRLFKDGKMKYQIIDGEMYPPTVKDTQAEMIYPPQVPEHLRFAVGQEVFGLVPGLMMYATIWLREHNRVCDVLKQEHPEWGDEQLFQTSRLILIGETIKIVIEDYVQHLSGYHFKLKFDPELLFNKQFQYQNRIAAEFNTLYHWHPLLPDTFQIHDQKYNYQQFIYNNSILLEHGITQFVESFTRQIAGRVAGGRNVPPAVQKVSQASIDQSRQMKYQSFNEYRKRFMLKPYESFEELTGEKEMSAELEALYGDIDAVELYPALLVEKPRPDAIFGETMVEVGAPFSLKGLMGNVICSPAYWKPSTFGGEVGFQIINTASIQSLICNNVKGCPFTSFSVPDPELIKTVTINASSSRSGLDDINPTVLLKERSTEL
The test is described as follows: Fluorometric COX-2 inhibitor screening kit. It counts as biochemical. Particulars: at 10 µM; mean ± standard error of two measurements; read-out: COX-2 Percent of Inhibition. The procedure:
COX-2 and 5-LOX inhibitory activities were tested using fluorometric COX-2 and 5-LOX inhibitor screening kits (Abcam, UK). These assays are based on the fluorometric detection of Prostaglandin G2 (a product generated by the COX enzyme) or on the fluorometric detection of intermediate generated by the 5-LOX enzyme. The experiments were conducted according to the manufacturers’ instructions.
For the determination of COX-2 inhibitory activity, tested compounds were dissolved in DMSO (5 mM stock solutions) and then diluted with the same solvent to obtain test solutions. Test solutions were further diluted 5X with COX assay buffer (2 µL of test solution and 8 µL COX assay buffer). […] Solvent control (SC) was prepared by adding 2 µL DMSO and 8 µL COX assay buffer, while sample (S) and enzyme control (EC) were prepared by adding 10 µL of diluted test solution and COX assay buffer, respectively, into assigned wells. For the determination of 5-LOX inhibitory activity, tested compounds were also dissolved in DMSO to prepare stock solutions with the same concentration (5mM), which were then diluted with the same solvent to obtain test solutions. Subsequently, test solutions were added to corresponding wells (2 µL).
As a reminder, the inhibition is the percentage by which the read-out fell short of the control. With `COC(=O)[C@H](Cc1cn(C)c2ccccc12)NC(=S)NC(=O)[C@@H](C)c1ccc2cc(OC)ccc2c1` [Compound 7, Methyl-N^α-(((S)-2-(6-methoxynaphthalen-2-yl)propanoyl)carbamothioyl)-1-methyltryptophanate], the inhibition at 10 µM was 24.2 ± 5.77%.

Consider `COc1cccc(NC(=S)NC(=O)[C@@H](C)c2ccc3cc(OC)ccc3c2)c1` [Compound 4, (S)-2-(6-methoxynaphthalen-2-yl)-N-((3-methoxyphenyl)carbamothioyl)propanamide], for which the inhibition at 10 µM stood at 37.71 ± 0.28%.

As to `COc1ccc2cc([C@H](C)C(=O)NC(=S)Nc3ccc(F)cc3)ccc2c1` [Compound 1, (S)-N-((4-fluorophenyl)carbamothioyl)-2-(6-methoxynaphthalen-2-yl)propanamide], the inhibition at 10 µM was 24.7 ± 1.11%.

Consider `COc1ccc2cc([C@H](C)C(=O)NC(=S)Nc3ccc(C(C)=O)cc3)ccc2c1` [Compound 5, (S)-N-((4-acetylphenyl)carbamothioyl)-2-(6-methoxynaphthalen-2-yl)propanamide], for which the inhibition at 10 µM was determined as 19.6 ± 4.55%.

Consider `CCOC(=O)C(Cc1ccccc1)NC(=S)NC(=O)C(C)c1ccc2cc(OC)ccc2c1` [Compound 6, Ethyl(((S)-2-(6-methoxynaphthalen-2-yl)propanoyl)carbamothioyl)-L-phenylalaninate], for which the inhibition at 10 µM was 24 ± 5.36%.

In the case of `CCOc1ccc(NC(=S)NC(=O)[C@@H](C)c2ccc3cc(OC)ccc3c2)cc1` [Compound 3, (S)-N-((4-ethoxyphenyl)carbamothioyl)-2-(6-methoxynaphthalen-2-yl)propanamide], the inhibition at 10 µM came to 23.4 ± 0.57%.

For the molecule `COc1ccc(NC(=S)NC(=O)[C@@H](C)c2ccc3cc(OC)ccc3c2)cc1` [Compound 2, (S)-2-(6-methoxynaphthalen-2-yl)-N-((4-methoxyphenyl)carbamothioyl)propanamide], the inhibition at 10 µM amounted to 18.8 ± 4.37%.
